The results in this text go back to paper PMC10005185, “Structure-guided engineering of a receptor-agonist pair for inducible activation of the ABA adaptive response to drought” (Science Advances, 2023).

One assay has as its target AtHAB1ΔN with CsPYL1^5m (Citrus sinensis, UniProt A0A067E666, F137I/T135L/T153I/V112L/V168A). As to the kind of experiment: PP2C inhibition assay, HAB1 with CsPYL1^5m. Format: biochemical, Citrus sinensis (CsPYL1^5m); Arabidopsis thaliana (HAB1). The settings on record: IC50 for inhibition of HAB1 (ΔNHAB1) in the presence of CsPYL1^5m, pNPP as substrate. As to the method: (§1) His-tagged receptors and phosphatases were purified using nickel–nitrilotriacetic acid (Ni-NTA) affinity chromatography. Protein integrity was analyzed by SDS–polyacrylamide gel electrophoresis, followed by InstantBlue staining. Phosphatase activity was measured using p-Nitrophenyl Phosphate (pNPP) (25 mM) as substrate, 10 mM MnCl2,1 μM PP2C, and 2 μM of the indicated receptors. […] Assays were repeated twice. For dose-response experiments, IC50 values were obtained with GraphPad Prism 9 using a nonlinear regression curve fit. Each ligand concentration was tested in triplicate. Phosphatase activity of ABI1 was measured using RRA(phosphoT)VA peptide as a substrate, as described ([27]).

In another assay the test system is ABI1 with CsPYL1^5m. Format: biochemical, Citrus sinensis (CsPYL1^5m); Arabidopsis thaliana (ABI1). As to the method: as §1
In a further assay the target is T1, ABI1 with AtPYR1 (Arabidopsis thaliana, UniProt O49686).
T1 construct: His; made in house
T1 sequence (O49686 whole entry): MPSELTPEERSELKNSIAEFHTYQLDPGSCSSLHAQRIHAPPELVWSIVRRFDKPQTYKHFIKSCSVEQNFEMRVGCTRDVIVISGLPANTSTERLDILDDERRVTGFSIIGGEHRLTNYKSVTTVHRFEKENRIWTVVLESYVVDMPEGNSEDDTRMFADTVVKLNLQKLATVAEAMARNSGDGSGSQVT
T1 sequence (P49597 whole entry partner): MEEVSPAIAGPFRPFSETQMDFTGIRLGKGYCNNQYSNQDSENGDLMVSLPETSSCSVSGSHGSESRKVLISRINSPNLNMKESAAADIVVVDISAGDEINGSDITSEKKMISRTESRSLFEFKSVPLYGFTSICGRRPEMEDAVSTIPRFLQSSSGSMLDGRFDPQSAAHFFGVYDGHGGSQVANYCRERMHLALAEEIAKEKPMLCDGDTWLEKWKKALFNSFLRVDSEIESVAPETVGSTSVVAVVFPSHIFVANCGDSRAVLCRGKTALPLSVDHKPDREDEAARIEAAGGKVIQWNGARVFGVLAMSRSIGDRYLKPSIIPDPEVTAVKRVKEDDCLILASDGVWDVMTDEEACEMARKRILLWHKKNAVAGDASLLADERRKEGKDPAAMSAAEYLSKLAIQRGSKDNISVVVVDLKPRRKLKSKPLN
The assay is described as follows: PP2C inhibition assay, ABI1 with AtPYR1. It is filed as biochemical. The settings on record: 1 µM phosphatase:2 µM receptor; read-out: IC50 of ABI1 with AtPYR1. As to the method: His-tagged receptors and phosphatases were purified using nickel–nitrilotriacetic acid (Ni-NTA) affinity chromatography. Protein integrity was analyzed by SDS–polyacrylamide gel electrophoresis, followed by InstantBlue staining. Phosphatase activity was measured using p-Nitrophenyl Phosphate (pNPP) (25 mM) as substrate, 10 mM MnCl2,1 μM PP2C, and 2 μM of the indicated receptors. Proteins were incubated with the ligands for 10 min at room temperature. pNPP was then added to start the reactions, and the absorbance at 405 nm was monitored for 20 min in a ViktorX5 plate reader. Assays were repeated twice. For dose-response experiments, IC50 values were obtained with GraphPad Prism 9 using a nonlinear regression curve fit. Each ligand concentration was tested in triplicate. Phosphatase activity of ABI1 was measured using RRA(phosphoT)VA peptide as a substrate, as described ([27]). […]
(D) Dose response analysis of iSB09 or ABA-dependent inhibition of ABI1 (blue and black lines, respectively) in presence of either AtPYL1 or AtPYR1. Values (average of duplicates) show PP2C activity after incubation with the indicated concentration of ligand and receptor at 1:2 ratio (1 µM phosphatase:2 µM receptor). […]
whereas with AtPYR1 was 200 nM and 213 nM, for ABA and iSB09, respectively. Ligands were assayed

The target in a further assay is CsPYL1^5m:ΔNHAB1 (Citrus sinensis, UniProt A0A067E666, F137I/T135L/T153I/V112L/V168A). As to the kind of experiment: biochemical. The protocol:
To obtain the Kd values, the data were analyzed using nonlinear least-squares regression using a model considering a single set of binding sites implemented in Origin 7.0 (OriginLab).

For assay [1], the system named is Nicotiana benthamiana WT plants. The assay is described as follows: IR thermography of leaf temperature, N. benthamiana. Format: in vivo. The settings on record: nontransformed leaves, 24 hours after spraying, 50 μM ABA or 100 μM iSB07 or iSB09, compared to mock. As to the method: IR images were taken using a FLIR […] thermocamera 1 day after the treatment (for N. benthamiana) or 2 and 5 days (for S. lycopersicum). Quantification was performed using the FLIR tools software on fully expanded leaves by analyzing 10 sections per leaf. At least six plants per genotype and treatment were analyzed in each experiment. Experiments were repeated twice. The average plant temperature ± SD of all the plants for each treatment and genotype was calculated and used to report the increase in temperature produced by each treatment. Statistical comparisons among genotypes were performed by either pairwise t tests or one-way ANOVA.

For another assay, the system named is ABA-responsive markers. The assay is described as follows: RNA sequencing of ABA-responsive markers. It is filed as in vivo, Arabidopsis thaliana. The settings on record: 5 μM iSB09, 3 hours. As to the method: Total RNA was extracted as indicated above. The quality of the samples was verified using Agilent 2100 Bioanalyzer. First-strand cDNA was prepared by an EasyScript One-Step gDNA Removal and cDNA Synthesis SuperMix (TransGen Biotech) with random hexamers. Sequencing of cDNA libraries was performed using the DNB-Seq technology at the Beijing Genomics Institute, producing at least 20 million clean reads per sample of paired-end 100-base pair read lengths. RNA-seq data analysis was carried out by the Bioinformatics core facility at Instituto de Biología Molecular y Celular de […]. After quality analysis of raw reads with FastQC (www.bioinformatics.babraham.ac.uk/projects/fastqc/), and quality trimming and adapter removal of raw reads with cutadapt (http://journal.embnet.org/index.php/embnetjournal/article/view/200), clean read pairs longer than 20 nucleotides were mapped to TAIR10 arabidopsis Col-0 reference genome using HISAT2 with default parameters, and nonuniquely mapped pairs were discarded with SAMtools. The number of read counts that uniquely mapped to each arabidopsis gene (Araport11 annotation) was obtained with HTSeq-count. Genes lacking at least 1 TPM ([…]) in the three replicates of at least one of the two conditions were filtered out, and differential expression analysis of the remaining genes was done with DESeq2. […]

AtHAB1ΔN with CsPYL1^5m, sequence (A0A067E666 1-209 V112L/T135L/F137I/T153I/V168A): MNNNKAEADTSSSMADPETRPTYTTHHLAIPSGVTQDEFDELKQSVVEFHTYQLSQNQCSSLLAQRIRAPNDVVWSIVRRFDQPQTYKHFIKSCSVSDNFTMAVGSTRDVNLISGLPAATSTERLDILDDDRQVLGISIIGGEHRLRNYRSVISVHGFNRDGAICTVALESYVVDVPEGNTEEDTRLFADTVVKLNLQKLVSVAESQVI
AtHAB1ΔN with CsPYL1^5m, sequence (Q9CAJ0 179-511 partner): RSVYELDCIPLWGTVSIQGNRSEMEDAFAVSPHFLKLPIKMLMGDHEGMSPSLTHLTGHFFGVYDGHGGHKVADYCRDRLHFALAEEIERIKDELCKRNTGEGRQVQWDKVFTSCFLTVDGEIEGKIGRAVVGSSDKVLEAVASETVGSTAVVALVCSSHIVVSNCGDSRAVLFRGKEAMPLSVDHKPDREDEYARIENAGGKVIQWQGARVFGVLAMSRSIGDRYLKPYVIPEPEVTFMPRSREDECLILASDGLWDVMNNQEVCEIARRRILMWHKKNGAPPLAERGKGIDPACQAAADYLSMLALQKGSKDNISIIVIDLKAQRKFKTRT
CsPYL1^5m:ΔNHAB1, sequence (A0A067E666 1-209 V112L/T135L/F137I/T153I/V168A): as the sequence (A0A067E666 1-209 V112L/T135L/F137I/T153I/V168A) above
CsPYL1^5m:ΔNHAB1, sequence (Q9CAJ0 179-511 partner): as the sequence (Q9CAJ0 179-511 partner) above

With `CCn1c(=O)cc(C)c2cc(CNS(=O)(=O)c3ccccc3)ccc21` [iSB09], the IC50 at AtHAB1ΔN with CsPYL1^5m came to 316 nM; on ABI1 with AtPYR1, 213 nM. In the assay on ABI1 with CsPYL1^5m, the “sensitivity of ABI1 relative to HAB1 to iSB09-mediated CsPYL1^5m-dependent inhibition” value is listed as “fivefold more sensitive”. Further, the dissociation constant (Kd) on CsPYL1^5m:ΔNHAB1 came to 560 nM. In addition, in assay [1], the “leaf temperature by thermal imaging” value is “increased leaf temperature”. In addition, the “increase of regulation of ABA-responsive markers in CsPYL1^5m background relative to WT” value with ABA-responsive markers is recorded as 8- to 10 fold.
